Experimental findings from paper PMC4467461, “Small-molecule activation of SERCA2a SUMOylation for the treatment of heart failure” (Nature Communications, 2015) are described below.

The subject of one experiment is Serca2 KO mice. The experiment in a line: Invasive P–V loop haemodynamics in cardiac-specific Serca2a knockout mice. It is filed as in vivo. How it is done: Figure 5 Lack of effects of N106 on haemodynamic parameters in cardiac-specific Serca2a knockout mice. Systolic and diastolic function was determined in conditional cardiac-specific Serca2a knockout mice by pressure–volume analysis. […] There was no significant change in haemodynamic parameters with N106 treatment after a single dose (1 mg kg^−1) (a-f) and different doses (0.1, 1 and 10 mg kg^−1) (g,h). Data are represented as mean±s.e.m. n=3∼8 mice per each condition. NS, not significant; Student’s t-test.
One day after echocardiography, we performed in-vivo haemodynamics. The mice were anaesthetized with an intraperitoneal injection mixture of urethane (1 mg g^−1), etomidate (10 μg g^−1) and morphine (1 μg g^−1), and were then intubated via a tracheotomy and mechanically ventilated at 7 μl g^−1 tidal volume and 120 respirations per minute. A small incision was made in the apex and a French Millar cathether connected a high-fidelity pressure transducer (Scisense, London, ON, Canada) inserted into the LV. Haemodynamic recordings were performed after 5∼10 min of stable HR. The rate of pressure rise (+dP/dt) and maximal pressure, the time constant of isovolumic relaxation and HR were recorded and analysed. To determine the relative effects of the admittance and conductance techniques to contractility change induced by N106 compound infusion, whole haemodynamic function was recorded at both baseline and after administration of N106 compound through the external jugular vein. N106 compound was solubilized in 10% DMSO (Sigma-Aldrich), 10% Tween-80 (Sigma-Aldrich) and saline for in-vivo experiments. N106 or vehicle solutions were continuously infused through the external jugular vein at a rate of 50 μl min^−1 for 2 min in each dose. Whole haemodynamic functions of increasing dose of N106 of each mouse were recorded for ∼4 h. Each dose of N106 solution was infused after back to baseline of heart function.

The subject of experiment [1] is mouse heart tissue (sham and TAC). The experiment is described as follows: Molecular analysis of heart tissue of N106-infused mice (western blot, immunoprecipitation, ATPase activity). In kind it is in vivo. How it is done:
Protein extracts (20∼50 μg) were obtained from isolated cardiomyocytes, which was lysed in RIPA buffer (R&D Systems Inc., MN, USA) contained protease inhibitors (Complete mini, Roche Diagnostics, IN, USA) and 20 mM NEM (Sigma-Aldrich). For SERCA2a SUMOylation assays, cardiac protein extracts were immunoprecipitated with a SUMO-1 agarose resin (Santa Cruz Biotechnology Inc., CA, USA) for overnight at 4 °C. The resins were washed with cold lysis buffer three times. The immunocomplexes were then resolved by SDS–PAGE and western blot analysis was performed using a SERCA2a-specific antibody. For general western blotting, cardiac proteins (10∼50 μg) were separated on SDS–PAGE gel, transferred to nitrocellulose membrane (Bio-Rad, CA, USA) and blotted with the following primary antibodies: SUMO-1 (1:1,000, R&D Systems Inc.), Ubc9 (1:1,000, R&D Systems Inc.), SAE2 (1:1,000, Abcam Inc., MA, USA), SERCA2a (1:3,000, 21st Century Biochemicals, MA, USA), PLN (1:5,000, Badrilla Ltd., UK), PLN phosphorylation at serine-16 (1:5,000, Badrilla Ltd.), RyR2 (1:5,000, Abcam Inc.), NCX (1:1,000, Novus Biologicals, CO, USA), glyceraldehyde 3-phosphate (1:10,000, Sigma-Aldrich), GATA4 (1:1,000, Millipore, NY, USA) and Sp1 (1:500, Millipore). Secondary antibodies anti-mouse IgG-HRP (1:10,000) and anti-rabbit IgG-HRP (1:10,000) were purchased from Sigma-Aldrich. The immunoreactive bands were visualized by a supersignal chemiluminescence detection reagent (Pierce Biotechnology, IL, USA). Full scans of western blots are presented in Supplementary Fig. 14.
SERCA2a ATPase activity was determined using a coupled enzymes assay including pyruvate kinase/lactate dehydrogenase/NADH-coupled reactions. Microsomes were enriched by differential density centrifugation. The cardiac cells and tissues were homogenized on ice in homogenization buffer (250 mM sucrose (Sigma-Aldrich), 5 mM HEPES pH7.0 (Sigma-Aldrich), 1 mM phenylmethyl sulfonyl fluoride (Sigma-Aldrich), protease inhibitor cocktail (Roche Life Science, IN, USA)). The homogenates were centrifuged at 1,000g for 10 min at 4 °C, then the supernatants were collected and centrifuged at 12,000g for 15 min at 4 °C. The supernatants were transferred to ultracentrifuge tubes and centrifuged for 1 h at 140,000g at 4 °C (Optima XE-100, Beckman Coulter). The pellets were resuspended in homogenization buffer to determine protein concentration and calcium-dependent ATPase activity assay. Protein concentration was measured with a 2-D Quant Kit (GE Healthcare Life Sciences, PA, USA). The ATPase activity were measured at 25 °C in 50 mM MOPS (Boston Bioproducts, MA, USA), 100 mM KCl (Boston Bioproducts), 5 mM MgCl2 (Boston Bioproducts), 1 mM EDTA (Boston Bioproducts) at pCa 5.0 by using a coupled enzyme system consisting of pyruvate kinase and lactate dehydrogenase, and monitoring the oxidation of the reduced form of NADH at […].
Supplementary Figure 9. Molecular analysis in N106 treated mice. (a-d) Representative western blots and protein quantification of select cardiac proteins. Mice heart tissue samples were obtained after external jugular vein infusion with vehicle or 10 mg.kg-1of N106 from sham and TAC mice. The experiments shown are representative of three independent Western blots with […]
(also on this page, place not known: TACSham TACSham TACSham SUMO-1 Conjugates (relative fold) N106Vehicle TACSham Veh RyR2/GAPDH (relative fold)Vehicle N106Vehicle Veh TACSham Veh 0.5 NCX/GAPDH (relative fold) NSNS N106Vehicle N106Vehicle N106Vehicle 200ATPase activity (% of control)Vehicle N106Vehicle TAC PLN/GAPDH (relative fold) P-PLN/PLN (relative fold) MW) […]
similar results. (e) The enzyme activity of SERCA2a was determined by using the same set of heart tissue samples. (f) SUMO-1 conjugate was measured by Western blot analysis with an anti-SUMO-1 antibody. Band intensity was quantified by Image J software. The amount of GAPDH was used as a normalization control. […]
Background: In western blotting, separated proteins are transferred to a membrane and probed.

[2] abbreviates: Serca2a knockout mice, 1 mg kg^−1.

For `COc1ccc(-c2nnc(Nc3nc4c(OC)cccc4s3)o2)cc1` [Compound N106, N-(4-methoxybenzo[d]thiazol-2-yl)-5-(4-methoxyphenyl)-1,3,4-oxadiazol-2-amine], the “improvements in haemodynamic parameters” value in the experiment on Serca2 KO mice (Serca2 KO, 1 mg kg^−1 and 0.1, 1 and 10 mg kg^−1) was “did not induce any improvements”. In the experiment on Serca2 KO mice (setting [2]), the “+dP/dtmax” value was found to be 2917.8±412.9 mm Hg s^−1, the HR is on record as 311.2±16.1 bpm, the Pmax was determined as 75.0±4.4 mm Hg and the τ is 11.2 ± 1.0 ms. Also, the ESPVR slope with Serca2 KO mice (Serca2a knockout mice, 1 mg kg^−1 via jugular vein) turned out to be 3.9±0.7 mm Hg μl^−1. Also, in experiment [1] (10 mg kg^−1), the “GATA4 SUMOylation and its protein levels” value is listed as “no significant effect”; the “protein levels of Sp1” value is “not changed”. For the same compound, in experiment [1] (10 mg kg^−1 infusion), the SERCA2a protein levels result is given as “not significantly changed”; the “protein levels and phosphorylation states of phospholamban” value was “Neither protein levels nor phosphorylation states of phospholamban were changed”; the “protein levels of cardiac ryanodine receptor and sodium–calcium exchanger” value is given as “not significant changes”; the “whole SUMO-1 conjugates” value is recorded as “not significantly changed”. Moreover, the “SUMOylated specificity protein 1 (Sp1) form” value in experiment [1] (TAC heart, 10 mg kg^−1) was “significantly induced”. Moreover, the “SUMOylation of SERCA2a versus vehicle control” value in experiment [1] (TAC hearts, 10 mg kg^−1) is “significantly increased”. The “SERCA2a’s ATPase activity versus vehicle-treated hearts” value in experiment [1] (TAC hearts, 10 mg kg^−1 (P=0.06)) is given as “somewhat higher”. In addition, the “SUMOylation of SERCA2a versus vehicle control” value in experiment [1] (sham-operated group, 10 mg kg^−1 (P=0.07)) is given as “increasing trend”.
